Experimental data published in patent EP4559896A1, “PH-SENSITIVE CATIONIC LIPID AND LIPID NANOPARTICLE” (National University Corporation Hokkaido University, priority 2022, dated 2024).

What was measured:
[1] = average particle size and polydispersity index by dynamic light scattering; format: physicochemical; conditions: Fluc mRNA-loaded lipid nanoparticles
Protocol: The average particle size (number average value), ζ-average particle size, and polydispersity index (PdI) of the lipid nanoparticles in PBS(-) (pH 7.4), and the zeta potential in 10 mM HEPES buffer (pH 7.4) were measured using an analyzer "Zetasizer Nano ZS ZEN3600" (manufactured by Malvern) utilizing dynamic light scattering.

[2] = encapsulation rate of lipid nanoparticles (RiboGreen); format: physicochemical; conditions: Fluc mRNA-loaded lipid nanoparticles
Protocol: The encapsulation rate of the lipid nanoparticles was determined by measuring the amount of encapsulated nucleic acid (mRNA) using RiboGreen (manufactured by Life Technologies), which is an RNAintercalator. The amount of mRNA was quantified based on a calibration curve prepared from a dilution series solution of mRNA at a known concentration.
Specifically, 10 mM HEPES buffer (pH 7.4), 10 w/v% Triton X-100, and RiboGreen were mixed at 978.8 µL, 20 µL, and 1.25 µL per 10 wells, respectively, to obtain a Triton(+) buffer. A Triton(-) buffer was obtained in replacing Triton X-100 with 10 mM HEPES buffer (pH 7.4). 100 µL/well of the sample was added to a black 96-well plate for fluorescence measurement, and 100 µL/well of Triton(+) buffer or Triton(-) buffer was added. After the plate was gently shaken on a shaking incubator (SI-300, manufactured by AS ONE) (700 rpm, 30 seconds), the fluorescence intensity of each well was measured using a microplate reader (VARIOSKAN LUX, manufactured by Thermo Fisher Scientific) (wavelength Ex/Em=500 nm/525 nm), and the nucleic acid encapsulation rate (%) was calculated.

BALB/c mice = experiment: Fluc activity in tissues of mice administered with Fluc mRNA-loaded lipid nanoparticles; format: in vivo; conditions: for luciferase activity in the lung compared with control mice (CL4F6-containing lipid nanoparticles) / luciferase activity in the heart compared with control mice (CL4F6-containing lipid nanoparticles) / luciferase activity in the muscle compared with control mice (CL4F6-containing lipid nanoparticles) / luciferase activity in the spleen compared with control mice (CL4F6-containing lipid nanoparticles): TOT/DSPC/chol/PEG-DMG=65/15/20/1.5, control CL4F6/DSPC/chol/PEG-DMG=50/10/40/1.5 (mol%)
Protocol: Lipid nanoparticles were administered to mice by intravenous injection into the tail vein using a 27G needle. Unless otherwise specified, BALB/c mice (4 to 5 weeks old, female) were used.
First, BALB/c mice (female, 4 weeks old) were intravenously injected with lipid nanoparticles encapsulating Fluc mRNA (Fluc mRNA-loaded lipid nanoparticles) at a dose of 0.01 mg mRNA/kg. Six hours after intravenous injection, the mice were euthanized, each tissue was collected, frozen in liquid nitrogen, and stored at -80°C. The tissues were homogenized in passive lysis buffer (manufactured by Promega) using a bead-type cell disruptor (Micro Smash MS-100R, manufactured by TOMY Seiko). Tissue debris was removed by centrifugation, and the supernatant was collected. Fluc activity in the supernatant was measured using the Luciferase Assay System (E1500, manufactured by Promega) according to the manufacturer's protocol. Luminescence was measured using a luminometer (Luminescencer-PSN, manufactured by ATTO). Protein concentration was determined using a commercially available assay kit (BCA Protein Assay Kit, manufactured by Pierce). Fluc activity was expressed as relative light units (RLU) per mg of protein.
Specifically, first, each lipid nanoparticle was intravenously administered into the tail vein of mice in an amount of 0.2 mg/kg of Fluc mRNA, and 6 hours after administration of the lipid nanoparticles, about 50 mg each of the liver, spleen, lung, heart, brain, and muscle was collected and stored frozen. 500 µL of passive lysis buffer (manufactured by Promega) was added to each tube containing the collected organ. The liver was homogenized at 4000 rpm for 20 seconds twice, the spleen, kidney, lung, and heart were homogenized at 5000 rpm for 20 seconds twice, and the muscle was homogenized at 5000 rpm for 20 seconds four times; then, the homogenate was centrifuged at 13000 rpm at 4°C for 10 minutes, and the supernatant was collected as a sample for measurement. The liver and spleen were diluted 100 times with passive lysis buffer. 50 µL of a measurement sample (tissue supernatant) was mixed with 50 µL of luciferase assay buffer of the Luciferase Assay System (E1500, manufactured by Promega) previously added in a test tube by pipetting, and the amount of luminescence was measured with a luminometer. Protein concentration was determined using a commercially available assay kit (BCA Protein Assay Kit, manufactured by Pierce). Fluc activity was expressed as relative light units (RLU) per mg of protein.

[3] = TOT/DSPC/chol/PEG-DMG=65/15/20/1.5 (mol%)
[4] = Example 16, TOT/DSPC/chol/PEG-DMG=65/15/20/1.5 (mol%), i.v. tail vein
[5] = TOT-4/DSPC/chol/PEG-DMG=65/15/20/1.5, CL4F6/DSPC/chol/PEG-DMG=50/10/40/1.5 (mol%)
[6] = Example 15, TOT-4/PC/chol/PEG-DMG=65/15/20/1 (mol%), PC = DSPC, i.v. tail vein

## CCCCCCCC/C=C\CCCCCCCC(=O)OCC(COC(=O)CCCCCCC/C=C\CCCCCCCC)(COC(=O)CCCCCCC/C=C\CCCCCCCC)NC(=O)CCCN(C)C [TOT-2, 2-(4-(dimethylamino)butanamido)-2-((oleoyloxy)methyl)propane-1,3-diyl dioleate]
[1]; [3]
  PdI: 0.347
  ζ-Average Particle Size: 166.2 nm
[2]; [3]
  Encapsulation Rate: 92.3%
BALB/c mice; [4]
  Fluc activity (RLU/mg protein) in the liver: confirmed in the liver in all the mice except for those administered with Fluc mRNA-loaded lipid nanoparticles using TOT-2
BALB/c mice; Example 33, i.v. tail vein
  luciferase activity in the lung compared with control mice (CL4F6-containing lipid nanoparticles): higher

## CCCCCCCC/C=C\CCCCCCCC(=O)OCC(COC(=O)CCCCCCC/C=C\CCCCCCCC)(COC(=O)CCCCCCC/C=C\CCCCCCCC)NC(=O)C1CCN(C)CC1 [TOT-3, 2-(1-methylpiperidine-4-carboxamide)-2-((oleoyloxy)methyl)propane-1,3-diyl dioleate]
[1]; [3]
  PdI: 0.344
  ζ-Average Particle Size: 167.2 nm
[2]; [3]
  Encapsulation Rate: 92.3%
BALB/c mice; Example 33, i.v. tail vein
  luciferase activity in the lung compared with control mice (CL4F6-containing lipid nanoparticles): higher

## CCCCCCCC/C=C\CCCCCCCC(=O)OCC(COC(=O)CCCCCCC/C=C\CCCCCCCC)(COC(=O)CCCCCCC/C=C\CCCCCCCC)NC(=O)CCN(CC)CC [TOT-4, 2-(3-(diethylamino)propanamido)-2-((oleoyloxy)methyl)propane-1,3-diyl dioleate]
[1]; [3]
  PdI: 0.157
  ζ-Average Particle Size: 134.3 nm
[1]; [5]
  Number Average Particle Size: 33.5 nm
  ζ-Average Particle Size: 134.3 nm
[2]; [3]
  Encapsulation Rate: 83.5%
[2]; [5]
  Encapsulation Rate: 0.157%
BALB/c mice; Example 13, TOT/DOPE/chol/PEG-DMG=60/15/25/1.0 (mol%), i.v. tail vein
  Fluc activity (RLU/mg protein) in the liver and spleen: very high
BALB/c mice; Example 15, TOT-4/PC/chol/PEG-DMG=65/15/20/1 (mol%), PC = DPPC, i.v. tail vein
  Fluc activity in the spleen compared with the liver: higher Fluc activity in the spleen than in the liver
BALB/c mice; Example 15, TOT-4/PC/chol/PEG-DMG=65/15/20/1 (mol%), PC = DSPC, DPPC, POPC, or DOPC, i.v. tail vein
  Fluc activity (RLU/mg protein) in the liver and spleen: confirmed
BALB/c mice; [6]
  Fluc activity (RLU/mg protein) in the liver: relatively suppressed
  Fluc activity in the spleen compared with the liver: higher Fluc activity in the spleen than in the liver
BALB/c mice; [4]
  Fluc activity (RLU/mg protein) in the spleen: very high
BALB/c mice; Example 17, TOT-4/DSPC/chol/PEG-DMG=65/15/20/1.5 (mol%) versus RNA-LPX (DOTMA/DOPE=50/50 mol%), i.v. tail vein
  gene expression in the spleen, times higher than Fluc mRNA-loaded lipid nanoparticles using RNA-LPX: 24 times
BALB/c mice; Example 18, TOT-4/DSPC/chol/PEG-DMG=65/15/20/1.5 (mol%), similar to CL4F6/DSPC/chol/PEG-DMG=50/10/40/1.5, i.v. tail vein
  gene expression in the spleen and liver: high
BALB/c mice; Example 19, TOT-4/DSPC/chol/PEG-DMG=65/15/20/1.5 versus CL4F6/DSPC/chol/PEG-DMG=50/10/40/1.5 (mol%), i.v. 0.2 mg/kg of Fluc mRNA, 6 hours, N=3
  luciferase activity in the spleen, lung, brain, heart, and muscle compared with CL4F6-containing lipid nanoparticles: higher
BALB/c mice; Example 33, TOT/DSPC/chol/PEG-DMG=65/15/20/1.5 (mol%), i.v. tail vein
  luciferase activity in the brain: remarkably high
BALB/c mice; Example 33, i.v. tail vein
  luciferase activity in the heart compared with control mice (CL4F6-containing lipid nanoparticles): very high
  luciferase activity in the lung compared with control mice (CL4F6-containing lipid nanoparticles): higher
  luciferase activity in the muscle compared with control mice (CL4F6-containing lipid nanoparticles): very high
  luciferase activity in the spleen compared with control mice (CL4F6-containing lipid nanoparticles): higher

## CCCCCCCC/C=C\CCCCCCCC(=O)OCC(COC(=O)CCCCCCC/C=C\CCCCCCCC)(COC(=O)CCCCCCC/C=C\CCCCCCCC)NC(=O)CNC [TOT-7, 2-(2-(methylamino)acetamido)-2-((oleoyloxy)methyl)propane-1,3-diyl dioleate]
[1]; [3]
  PdI: 0.232
  ζ-Average Particle Size: 128.0 nm
[2]; [3]
  Encapsulation Rate: 92.4%
BALB/c mice; Example 33, i.v. tail vein
  luciferase activity in the heart compared with control mice (CL4F6-containing lipid nanoparticles): higher

## CCCCCCCC/C=C\CCCCCCCC(=O)OCC(COC(=O)CCCCCCC/C=C\CCCCCCCC)(COC(=O)CCCCCCC/C=C\CCCCCCCC)NC(=O)CCN(C)CC [TOT-16, 2-(3-(ethyl(methyl)amino)propanamido)-2-((oleoyloxy)methyl)propane-1,3-diyl dioleate]
[1]; [3]
  PdI: 0.180
  ζ-Average Particle Size: 99.2 nm
[2]; [3]
  Encapsulation Rate: 87.6%
BALB/c mice; Example 33, i.v. tail vein
  luciferase activity in the heart compared with control mice (CL4F6-containing lipid nanoparticles): higher
  luciferase activity in the muscle compared with control mice (CL4F6-containing lipid nanoparticles): higher
  luciferase activity in the spleen compared with control mice (CL4F6-containing lipid nanoparticles): higher

## CCCCCCCC/C=C\CCCCCCCC(=O)OCC(COC(=O)CCCCCCC/C=C\CCCCCCCC)(COC(=O)CCCCCCC/C=C\CCCCCCCC)NC(=O)C1CCN(CC)CC1 [TOT-18, 2-(1-ethylpiperidine-4-carboxamide)-2-((oleoyloxy)methyl)propane-1,3-diyl dioleate]
[1]; [3]
  PdI: 0.319
  ζ-Average Particle Size: 130.0 nm
[2]; [3]
  Encapsulation Rate: 92.2%
BALB/c mice; Example 33, i.v. tail vein
  luciferase activity in the lung compared with control mice (CL4F6-containing lipid nanoparticles): higher
  luciferase activity in the muscle compared with control mice (CL4F6-containing lipid nanoparticles): very high

## CCCCCCCC/C=C\CCCCCCCC(=O)OCC(COC(=O)CCCCCCC/C=C\CCCCCCCC)(COC(=O)CCCCCCC/C=C\CCCCCCCC)NC(=O)C1CCN(C(C)C)CC1 [TOT-19, 2-(1-isopropylpiperidine-4-carboxamide)-2-((oleoyloxy)methyl)propane-1,3-diyl dioleate]
[1]; [3]
  PdI: 0.261
  ζ-Average Particle Size: 142.6 nm
[2]; [3]
  Encapsulation Rate: 92.2%
BALB/c mice; Example 33, i.v. tail vein
  luciferase activity in the heart compared with control mice (CL4F6-containing lipid nanoparticles): very high
  luciferase activity in the lung compared with control mice (CL4F6-containing lipid nanoparticles): highest
  luciferase activity in the muscle compared with control mice (CL4F6-containing lipid nanoparticles): very high
